In US9993534B2, “Method of treating fungal infection” (Wisconsin Alumni Research Foundation, priority 2013, dated 2018):

Test system: 1807 cells
Type: cell-based, mouse
Conditions: Calnexin peptide #1, 13 amino acid sequence of the named species

LVLKSRAKHHAIS [Homo sapiens (Calmegin)]
1807 reactive: not reactive with the 1807 cells
